Measurements published in patent publication US4046914A, “Therapeutically active substituted saturated and mono-and polyunsaturated alkyl-glycerylethers” (Astra Nutrition AB, priority 1975, dated 1977).

System: He La cells
Assay: growth of He La cells (cell counts in Burker chamber)
Type: cell-based
Protocol: Hank's solution containing 0,5 % hydrolysate of lactalbumin, 7 % calf serum and with 7 ml 0,15 % sodium bicarbonate and 20-40.000 I.U. of penicillin and streptomycin added per 100 ml was used for the cultivation of the He La cells. pH was 7,4 at the beginning of the experiment. The medium was changed 2 times per week. A suspension of He La cells was obtained by treatment with versene. The glycerol ethers were dissolved in the medium in concentrations of 1, 5, 25 and 100 μg/ml. 1,5 ml of cell suspension, containing 10^6 cells/ml, was added to 18,5 ml medium. The growth was registered by counting the cells in a Burker chamber.

Structure (SMILES): CCCCCCCCCCCCCCC(COCC(O)CO)OC (centres unmarked) [AII, 1-O-(2-methoxyhexadecyl)-glycerol]
- cytostatic action (25 μg/ml): acted clearly cytostatically
- time to completely suppressed growth (25 μg/ml): about 15 days
- effect on He La cell growth (25 μg/ml, 14 days at 37° C): growth inhibiting and later on a cell killing effect
- Cell counts (Table II, 5 μg/ml, 1 day, controls 54): 201
- Cell counts (Table II, 5 μg/ml, 3 days, controls 122): 137
- Cell counts (Table II, 5 μg/ml, 6 days, controls 186): 225
- Cell counts (Table II, 25 μg/ml, 1 day, controls 54): 206
- Cell counts (Table II, 25 μg/ml, 3 days, controls 122): 91
- Cell counts (Table II, 25 μg/ml, 6 days, controls 186): 148
- Cell counts (Table II, 100 μg/ml, 1 day, controls 54): 157
- Cell counts (Table II, 100 μg/ml, 3 days, controls 122): All cells dead
- Cell counts (Table II, 100 μg/ml, 6 days, controls 186): All cells dead
- Cell counts (Table III, 5 μg/ml, 1 day, controls 78): 63
- Cell counts (Table III, 5 μg/ml, 2 days, controls 98): 113
- Cell counts (Table III, 5 μg/ml, 6 days, controls 228): 205
- Cell counts (Table III, 5 μg/ml, 10 days, controls 359): 407
- Cell counts (Table III, 25 μg/ml, 1 day, controls 78): 64
- Cell counts (Table III, 25 μg/ml, 2 days, controls 98): 154
- Cell counts (Table III, 25 μg/ml, 6 days, controls 228): 160
- Cell counts (Table III, 25 μg/ml, 10 days, controls 359): 272
- Cell counts (Table IV, 1 μg/ml, 2 days, controls 138): 121
- Cell counts (Table IV, 1 μg/ml, 5 days, controls 172): 271
- Cell counts (Table IV, 1 μg/ml, 8 days, controls 520): 598
- Cell counts (Table IV, 1 μg/ml, 11 days, controls 757): 546
- Cell counts (Table IV, 1 μg/ml, 14 days, controls 649): 557
- Cell counts (Table IV, 5 μg/ml, 2 days, controls 138): 113
- Cell counts (Table IV, 5 μg/ml, 5 days, controls 172): 200
- Cell counts (Table IV, 5 μg/ml, 8 days, controls 520): 488
- Cell counts (Table IV, 5 μg/ml, 11 days, controls 757): 546
- Cell counts (Table IV, 5 μg/ml, 14 days, controls 649): 637
- Cell counts (Table IV, 25 μg/ml, 2 days, controls 138): 107
- Cell counts (Table IV, 25 μg/ml, 5 days, controls 172): 107
- Cell counts (Table IV, 25 μg/ml, 8 days, controls 520): 241
- Cell counts (Table IV, 25 μg/ml, 11 days, controls 757): 112
- Cell counts (Table IV, 25 μg/ml, 14 days, controls 649): 0
- Cell counts (Table V, 1 μg/ml, 3 days, controls 210): 293
- Cell counts (Table V, 1 μg/ml, 6 days after transfer, controls 176): 169
- Cell counts (Table V, 1 μg/ml, 8 days, controls 510): 498
- Cell counts (Table V, 5 μg/ml, 3 days, controls 210): 246
- Cell counts (Table V, 5 μg/ml, 6 days after transfer, controls 176): 136
- Cell counts (Table V, 5 μg/ml, 8 days, controls 510): 517
